Reference: patent US9169247B2, “Tetrahydro-beta-carboline derivatives, synthesis and use thereof” (Southern Research Institute, priority 2009, dated 2015)

Key:
[1] = system: human MDA-MB-231 breast tumor cells; test: Growth assay (Cell Titer Glo); type: cell-based; settings: Homo sapiens, MDA-MB-231, 72 h, MDA-MB-231 breast; 72 h; Tables 3-5; read-out: IC50 value, μM, growth
Protocol: (§1) All human tumor cell lines were obtained from ATCC and grown under standard cell culture conditions at 37° C. in a humidified atmosphere with 5% CO2. Cells were grown in RPMI 1640 supplemented with 5% fetal bovine serum 2 mM glutamine, 100 units/ml penicillin, 100 units/ml streptomycin, and 0.25 μg/ml amphotericin. Cells were harvested at 70 to 90% confluence with trypsin/EDTA and used immediately Cell count and viability was determined by Trypan blue staining followed by hemocytometry. Only cultures displaying >95% cell viability were used for experiments. HMEC were grown according to the specifications from the supplier (Lonzo).
(§2) Tissue culture microtiter 96-well plates were seeded with cells at a density of 5,000 cells/well. The plates were incubated for 18-24 hours prior to any treatment. All test compounds were solubilized in 100% DMSO and diluted with media to obtain a final DMSO concentration of 0.1%. Cell viability was measured 72 hours after treatment by the Cell Titer Glo Assay (Promega), which is a luminescent assay that is an indicator of live cells as a function of metabolic activity and ATP content. The assay was performed according to manufacturer's specifications. Luminescence was measured by a Perkin Elmer Victor® multi-label plate reader.^6
(§3) Dose response curves were analyzed using Prism™ 4 software (GraphPad) to calculate IC50 values using a four parameter logistic equation.

CACO-2 = test: Growth assay (Cell Titer Glo); type: cell-based; settings: Homo sapiens; CACO-2 colon; 72 h
Protocol: (§4) Compounds 2a-h were tested for tumor cell growth inhibitory activity using the human breast MDA-MB-231 and ZR75-1 tumor cell lines and the colon CACO-2, SW-1116, and HT-29 tumor cell lines.
as §1, §2, §3

SW1116 = test: Growth assay (Cell Titer Glo); type: cell-based; settings: Homo sapiens, SW 1116; SW1116 colon; 72 h
Protocol: as §4, §1, §2, §3

ZR75-1 = test: Growth assay (Cell Titer Glo); type: cell-based; settings: Homo sapiens, ZR-75-1; ZR75-1 breast; 72 h
Protocol: as §4, §1, §2, §3

HT-29 = test: Growth assay (Cell Titer Glo); type: cell-based, human; settings: Homo sapiens, HT-29, 72 h, HT-29 colon
Protocol: as §4, §1, §2, §3

Row | IC50 [1] | IC50 (CACO-2) | IC50 (SW1116) | IC50 (HT-29) | melting point | SMILES | IC50 (ZR75-1)
1 | 0.04 µM | 0.29 µM | > 10 µM | 5.59 µM | 228 to 230 °C | COC(=O)C1Cc2c([nH]c3ccccc23)C(c2cc(OC)ccc2OC)N1C(=O)CCl [Compound 2h, Methyl (1R,3S)-1-(2,5-dimethoxyphenyl)-2-(2-chloroacetyl)-2,3,4,9-tetrahydro-4H-β-carboline-3-carboxylate] | 3.95 µM
2 | 0.06 µM | 0.79 µM | 2.79 µM | 1.9 µM | – | COC(=O)[C@H]1Cc2c([nH]c3ccccc23)[C@@H](c2ccccc2Br)N1C(=O)CCl [Compound 2a, Methyl (1R,3R)-1-(2-bromophenyl)-2-(2-chloroacetyl)-2,3,4,9-tetrahydro-1H-β-carboline-3-carboxylate] | 3.52 µM
3 | 1.6 µM | 3.04 µM | 3.71 µM | 6.12 µM | 105 to 108 °C | COC(=O)[C@@H]1Cc2c([nH]c3ccccc23)[C@H](c2cc(OC)ccc2OC)N1C(=O)CCl [Compound 2g, Methyl (1S,3S)-1-(2,5-dimethoxyphenyl)-2-(2-chloroacetyl)-2,3,4,9-tetrahydro-1H-β-carboline-3-carboxylate] | 4.13 µM
4 | 0.25 µM | 0.55 µM | 1.05 µM | 3.2 µM | – | COC(=O)[C@@H]1Cc2c([nH]c3ccccc23)[C@@H](c2ccccc2Br)N1C(=O)CCl [Compound 2d, Methyl (1R,3S)-1-(2-bromophenyl)-2-(2-chloroacetyl)-2,3,4,9-tetrahydro-1H-β-carboline-3-carboxylate] | 3.61 µM
5 | 4.25 µM | 3.5 µM | 7.2 µM | 3.38 µM | 108 to 111 °C | COC(=O)[C@H]1Cc2c([nH]c3ccccc23)[C@@H](c2cc(OC)ccc2OC)N1C(=O)CCl [Compound 2e, Methyl (1R,3R)-1-(2,5-dimethoxyphenyl)-2-(2-chloroacetyl)-2,3,4,9-tetrahydro-1H-β-carboline-3-carboxylate] | 5.7 µM
6 | 0.02 µM | 0.1 µM | 2.72 µM | 0.77 µM | – | COC(=O)[C@@H]1Cc2c([nH]c3ccccc23)[C@H](c2ccccc2Br)N1C(=O)CCl [Compound 2c, Methyl (1S,3S)-1-(2-bromophenyl)-2-(2-chloroacetyl)-2,3,4,9-tetrahydro-1H-β-carboline-3-carboxylate] | 1.1 µM
